# Source: patent US9586928B2 (The Scripps Research Institute, priority 2011, dated 2017)
# Assays:
# VP16 = assay: Gal4 DBD-VP16 / UAS luciferase control assay; type: cell-based; conditions: 10 μM
# Protocol: (§1) The cells were treated with either DMSO or various compounds as indicated four hours after replating. Following additional 20 hour incubation, luciferase levels were assayed by one-step addition of 20 μL BriteLite (Perkin Elmer) and read using an Envision multilabel plate reader (Perkin Elmer).
# RORγ = target: T1, RORγ (Homo sapiens, UniProt P51449); assay: Gal4-RORγ LBD / UAS luciferase cotransfection assay; type: cell-based; conditions: for RORγ repression, fold change over DMSO: 10 μM
# T1 construct: expressed in transfected cells; host or cells: HEK293T
# T1 sequence (P51449 269-508 limits assumed): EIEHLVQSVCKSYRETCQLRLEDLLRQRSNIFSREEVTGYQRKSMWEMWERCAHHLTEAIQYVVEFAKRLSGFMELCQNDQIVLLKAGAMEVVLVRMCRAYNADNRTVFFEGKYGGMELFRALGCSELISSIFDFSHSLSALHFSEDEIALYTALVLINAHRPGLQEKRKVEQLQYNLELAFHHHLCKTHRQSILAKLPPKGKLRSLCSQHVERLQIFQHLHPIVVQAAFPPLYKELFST
# RORα = target: T2, RORα (Homo sapiens, UniProt P35398); assay: Gal4-RORα LBD / UAS luciferase cotransfection assay; type: cell-based; conditions: 10 μM
# T2 construct: expressed in transfected cells; host or cells: HEK293T
# T2 sequence (P35398 272-510 limits assumed): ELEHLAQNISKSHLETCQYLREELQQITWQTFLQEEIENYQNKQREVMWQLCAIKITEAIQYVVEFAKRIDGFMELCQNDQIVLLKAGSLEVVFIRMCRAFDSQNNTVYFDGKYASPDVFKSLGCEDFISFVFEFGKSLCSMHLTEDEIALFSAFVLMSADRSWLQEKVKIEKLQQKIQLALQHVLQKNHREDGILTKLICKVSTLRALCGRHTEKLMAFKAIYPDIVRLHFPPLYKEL
# Protocol: as §1
# Cotransfection assays were performed as previously described in HEK293 cells (Gal4 cotransfection assay or IL-17 luciferase reporter)[8]. HEK293 and the mouse lymphoma EL4 (ATCC) cells were maintained in DMEM supplemented with 10% FBS plus antibiotics (penicillin and streptomycin; Invitrogen).
# LXR = target: T3, LXR (Homo sapiens, UniProt Q13133); assay: Gal4-LXRα / UAS luciferase cotransfection assay; type: cell-based; conditions: 10 μM
# T3 sequence (Q13133 209-447 limits assumed): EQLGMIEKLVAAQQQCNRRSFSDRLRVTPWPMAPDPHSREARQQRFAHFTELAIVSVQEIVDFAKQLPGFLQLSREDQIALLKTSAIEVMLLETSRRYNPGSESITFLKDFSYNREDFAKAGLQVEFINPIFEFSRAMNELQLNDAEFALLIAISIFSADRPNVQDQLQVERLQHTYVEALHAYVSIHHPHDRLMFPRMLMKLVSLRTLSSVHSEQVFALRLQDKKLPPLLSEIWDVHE
# GST-RORγ = target: T4, GST-RORγ (Homo sapiens, UniProt P51449); assay: RORγ scintillation proximity (SPA) radioligand binding assay, displacement of [3H]-T0901317; conditions: for IC50: displacement of 5 nM [3H]-T0901317 from GST-RORγ; for remaining activity at 10 µM: 10 μM compound, read-out: RORγ SPA % bound = % radiolabel bound
# T4 construct: 1 μg of GST-RORγ-LBD, 5 nM of [3H]T1317 as radioligand
# T4 sequence (P51449 269-508 limits assumed): T1 sequence (P51449 269-508 limits assumed)
SMILES,"VP16 repression, fold change over DMSO (VP16) [fold change over DMSO]",IC50 (RORγ; Gal4 cotransfection) [nM],"RORα repression, fold change over DMSO (RORα) [fold change over DMSO]","LXR activation, fold change over DMSO (LXR) [fold change over DMSO]",IC50 (GST-RORγ) [nM],"RORγ repression, fold change over DMSO (RORγ) [fold change over DMSO]",remaining activity at 10 µM (GST-RORγ) [%]
"OC(c1ccc(-c2ccc(CN3CCN(Cc4ccncc4)CC3)cc2)cc1)(C(F)(F)F)C(F)(F)F [Compound 1, 1,1,1,3,3,3-Hexafluoro-2-(4′-((4-(pyridin-4-ylmethyl)piperazin-1-yl)methyl)-[1,1′-biphenyl]-4-yl)propan-2-ol]",1,400,1,1,150,,
"OC(c1ccc(-c2ccc(CN3CCN(C4CC4)CC3)cc2)cc1)(C(F)(F)F)C(F)(F)F [Compound 17, 2-(4′-((4-Cyclopropylpiperazin-1-yl)methyl)-[1,1′-biphenyl]-4-yl)-1,1,1,3,3,3-hexafluoropropan-2-ol]",0.4,,0.55,0.75,,0.25,20
"O=C(Cc1ccccc1)N1CCN(Cc2ccc(-c3ccc(C(O)(C(F)(F)F)C(F)(F)F)cc3)cc2)CC1 [Compound 27, 1-(4-((4′-(1,1,1,3,3,3-Hexafluoro-2-hydroxypropan-2-yl)-[1,1′-biphenyl]-4-yl)methyl)piperazin-1-yl)-2-phenylethanone]",0.3,,0.5,0.8,,0.25,
"CS(=O)(=O)N1CCN(Cc2ccc(-c3ccc(C(O)(C(F)(F)F)C(F)(F)F)cc3)cc2)CC1 [Compound 28, 1,1,1,3,3,3-Hexafluoro-2-(4′-((4-(methylsulfonyl)piperazin-1-yl)methyl)-[1,1′-biphenyl]-4-yl)propan-2-ol]",0.75,,1.1,1.5,,0.5,
"O=S(=O)(c1ccccc1)N1CCN(Cc2ccc(-c3ccc(C(O)(C(F)(F)F)C(F)(F)F)cc3)cc2)CC1 [Compound 29, 1,1,1,3,3,3-Hexafluoro-2-(4′-((4-(phenylsulfonyl)piperazin-1-yl)methyl)-[1,1′-biphenyl]-4-yl)propan-2-ol]",0.8,,1,1.8,,0.8,
"O=S(=O)(Cc1ccccc1)N1CCN(Cc2ccc(-c3ccc(C(O)(C(F)(F)F)C(F)(F)F)cc3)cc2)CC1 [Compound 30, 2-(4′-((4-(Benzylsulfonyl)piperazin-1-yl)methyl)-[1,1′-biphenyl]-4-yl)-1,1,1,3,3,3-hexafluoropropan-2-ol]",0.75,,1,2,,0.75,
"OC(c1ccc(-c2ccc(CN3CCN(Cc4ccnc(Br)c4)CC3)cc2)cc1)(C(F)(F)F)C(F)(F)F [Compound 40, 2-(4′-((4-((2-Bromopyridin-4-yl)methyl)piperazin-1-yl)methyl)-[1,1′-biphenyl]-4-yl)-1,1,1,3,3,3-hexafluoropropan-2-ol]",0.05,,0.1,1,,0.05,
"OC(c1ccc(-c2ccc(CN3CCN(CCc4ccncc4)CC3)cc2)cc1)(C(F)(F)F)C(F)(F)F [Compound 41, 1,1,1,3,3,3-Hexafluoro-2-(4′-((4-(2-(pyridin-4-yl)ethyl)piperazin-1-yl)methyl)-[1,1′-biphenyl]-4-yl)propan-2-ol]",0.3,,0.5,1,,0.3,
"OC(c1ccc(-c2ccc(CN3CCN(Cc4nc5ccccc5s4)CC3)cc2)cc1)(C(F)(F)F)C(F)(F)F [Compound 42, 2-(4′-((4-(Benzo[d]thiazol-2-ylmethyl)piperazin-1-yl)methyl)-[1,1′-biphenyl]-4-yl)-1,1,1,3,3,3-hexafluoropropan-2-ol]",0.1,,0.4,1,,0.2,
"Cc1cc(CN2CCN(Cc3ccc(-c4ccc(C(O)(C(F)(F)F)C(F)(F)F)cc4)cc3)CC2)ccn1 [Compound 43, 1,1,1,3,3,3-Hexafluoro-2-(4′-((4-((2-methylpyridin-4-yl)methyl)piperazin-1-yl)methyl)-[1,1′-biphenyl]-4-yl)propan-2-ol]",0.6,,0.6,1,,0.1,
"OC(c1ccc(-c2ccc(CN3CCN(c4ccncc4)CC3)cc2)cc1)(C(F)(F)F)C(F)(F)F [Compound 44, 1,1,1,3,3,3-Hexafluoro-2-(4′-((4-(pyridin-4-yl)piperazin-1-yl)methyl)-[1,1′-biphenyl]-4-yl)propan-2-ol]",0.3,,0.5,1,,0.4,
"OC(c1ccc(-c2ccc(CN3CCN(Cc4ccncc4Br)CC3)cc2)cc1)(C(F)(F)F)C(F)(F)F [Compound 59, 2-(4′-((4-((3-Bromopyridin-4-yl)methyl)piperazin-1-yl)methyl)-[1,1′-biphenyl]-4-yl)-1,1,1,3,3,3-hexafluoropropan-2-ol]",0.4,,0.4,4,1100,0.05,
"OC(c1ccc(-c2ccc(CN3CCC(Cc4ccc5c(c4)OCO5)CC3)cc2)cc1)(C(F)(F)F)C(F)(F)F [Compound 88, 2-(4′-((4-(Benzo[d][1.3]dioxol-5-ylmethyl)piperidin-1-yl)methyl)-[1,1′-biphenyl]-4-yl)-1,1,1,3,3,3-hexafluoropropan-2-ol]",0.3,,0.6,1.3,,0.2,35
"OC(c1ccc(-c2ccc(CN3CCN(Cc4ccncc4)CC3)c(Cl)c2)cc1)(C(F)(F)F)C(F)(F)F [Compound 93, 2-(3′-Chloro-4′-((4-(pyridin-4-ylmethyl)piperazin-1-yl)methyl)-[1,1′-biphenyl]-4-yl)-1,1,1,3,3,3-hexafluoropropan-2-ol]",0.7,,0.4,1.5,,0.05,
"OC(c1ccc(-c2ccc(CN3CCN(Cc4ccncc4)CC3)cc2F)cc1)(C(F)(F)F)C(F)(F)F [Compound 95, 1,1,1,3,3,3-Hexafluoro-2-(2′-fluoro-4′-((4-(pyridin-4-ylmethyl)piperazin-1-yl)methyl)-[1,1′-biphenyl]-4-yl)propan-2-ol]",0.7,,0.5,5,,0.05,
"OC(c1ccc(-c2ccc(CN3CCN(Cc4c(F)cncc4F)CC3)cc2)cc1)(C(F)(F)F)C(F)(F)F [Compound 101, 2-(4′-((4-((3,5-Difluoropyridin-4-yl)methyl)piperazin-1-yl)methyl)-[1,1′-biphenyl]-4-yl)-1,1,1,3,3,3-hexafluoropropan-2-ol]",0.75,,0.8,4,,0.15,
